Here are results for 9 compounds from PubChem BioAssay (NCI).

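Values below derive from 48-hour exposures of cells grown in 96-well plates, with endpoints linearly interpolated between the two concentrations bracketing the appropriate inhibition level. GI50 marks 50% less growth. TGI: total growth inhibition.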 Bounds are passed on as bounds.

Holding throughout (experiment): growth of human tumour cells (NCI), 48 h
The test system of test [1] is K-562 leukemia.
The subject of test [2] is SK-OV-3 ovarian.
In test [3] the test system is SN12C renal.
The test system of test [4] is PC-3 prostate.
Test [5] has as its system OVCAR-8 ovarian.
Test [6] has as its system MDA-MB-435.
The test system of test [7] is HT29 colon.
Test [8] concerns SF-295 CNS.
The test system of test [9] is UACC-62 melanoma.
For test [10], the system named is SR leukemia.

Consider `C=C(CN1CCN(c2cccc(F)c2)CC1)c1ccc(C(=O)Nc2ccccc2N)cc1`, for which the GI50 was 0.706 µM in [1]; 5.31 µM in [2]; 2.74 µM in test [3]; 0.689 µM in test [4]; 1.99 µM in test [5]; 0.283 µM in test [6]. Further, the GI50 in test [7] is 1.09 µM; in [8] it was 2.77 µM; in [9], 2.02 µM. Besides, the TGI in test [1] was 13.4 µM; in [2] it was > 100 µM; in test [3], > 100 µM; in test [4] it was 4.03 µM; in test [5], 47.9 µM; in [6] it was 1.74 µM. Also, the TGI in [7] was found to be 4.06 µM; in test [8], 73.6 µM; in [9] it was 63.5 µM.

As for `O=CC1(C2(C=O)c3ccccc3-c3ccccc32)c2ccccc2-c2ccccc21`, the GI50 is 2.3 µM in test [1]; 2.34 µM in test [3]; 1.44 µM in test [4]; 2.2 µM in test [5]; 1.92 µM in [6]; 1.65 µM in [10]. The values for the GI50 in test [7] and in test [9] were 1.32 µM and 2.69 µM, respectively. In addition, the TGI was > 22.6 µM in test [1]; 5.83 µM in [3]; 4.65 µM in test [4]; 6.08 µM in test [5]; 4.51 µM in [6]; 3.43 µM in [10]. The results for the TGI in [7] and in test [9] were 2.51 µM and 6.25 µM, respectively.

As for `CCN(CC)CC(O)C1CCC(c2ccccc2)CC1` (stereo unspecified), the TGI in [1] is > 100 µM; in [2], 36.6 µM; in [3], > 100 µM; in [4], > 100 µM; in [5], 59.7 µM; in test [6], 40.2 µM. Moreover, the TGI in test [7] is 47.7 µM; in [8] it was 36.6 µM; in test [9], 30.9 µM.

For the compound `COc1ccc(Cn2c(Br)c3c(c2-c2cc(OC)c(OC)c(OC)c2)CCc2sc(NC(C)=O)nc2-3)cc1`, the GI50 in test [1] is 3.67 µM; in test [3], 4.99 µM; in test [4], 3.44 µM; in test [5] it was 4.7 µM; in [6] it was 0.613 µM; in test [10], 2.44 µM. Besides, the GI50 in test [7] is 3.41 µM; in test [8], 2.41 µM; in test [9], 4.29 µM. Also, the TGI in [1] is > 100 µM; in test [3], > 100 µM; in test [4], > 100 µM; in [5], > 100 µM; in test [6], 4.36 µM; in [10], > 100 µM. The figures for the TGI in [7], in test [8] and in test [9] were 11.1 µM, 8.54 µM and > 100 µM, respectively.

Regarding `CC([O-])C(=O)[O-].NCC1CCC1CN.[Pt+4]` (stereo unspecified), the GI50 in test [1], in test [2], in test [3], in test [4], in [5] and in test [6] was > 10 µM in each case. The GI50 is > 10 µM in test [7], > 10 µM in test [8] and 6.87 µM in test [9]. For the same compound, the TGI in test [1], in test [2], in test [3], in [4], in [5] and in test [6] was > 10 µM each time. Further, the TGI in test [7], in test [8] and in test [9] was > 10 µM throughout.

Consider `COc1cc2c3c(c4c5ccccc5[nH]c4c2c(OC)c1OC)C(=O)N(CCN1CCCCC1)C3=O`, for which the GI50 was 0.71 µM in test [1]; 1.18 µM in test [2]; 1.1 µM in [3]; 1.22 µM in test [4]; 0.487 µM in test [5]; 1.48 µM in test [6]. Further, the GI50 in test [7] was 0.417 µM; in test [8], 1.25 µM; in test [9] it was 3.88 µM. Also, the TGI in test [2] is 2.53 µM; in test [3] it was 2.54 µM; in test [4], 2.64 µM; in test [5] it was 2.36 µM; in test [6], 3.27 µM; in test [7] it was 1.88 µM. Also, the results for the TGI in test [8] and in test [9] were 3.13 µM and 9.12 µM, respectively.

As for `C=C1C(=O)OC2/C=C(\C)C3OC3/C=C(/C(=O)OC)C(OC(C)=O)C(OC(=O)C(C)(O)C(C)OC(C)=O)C12` (stereo unspecified), the TGI in test [1] was determined as 17.1 µM; in test [2], 33 µM; in test [3], 7.02 µM; in test [4], 14.8 µM; in [5] it was 6.92 µM; in test [6] it was 4.84 µM. Further, the results for the TGI in test [7], in test [8] and in [9] were 2.88 µM, 21.5 µM and 4.55 µM, respectively.

In the case of `CC(C)Oc1ccc(C(=O)N[C@H](CNC(=O)CN(C)C)Cc2ccc(-c3cn4cccc([C@H](C)O)c4n3)cc2)cc1Cl`, the GI50 in test [1] is 0.0375 µM; in [2] it was 0.0694 µM; in test [3], 0.0661 µM; in test [4] it was 0.0664 µM; in test [5] it was 0.0674 µM; in test [6], 0.0293 µM. In addition, the GI50 is 0.035 µM in test [7], 0.0372 µM in test [8] and 0.0706 µM in [9]. Moreover, the TGI is 14.7 µM in test [1]; 22.9 µM in [2]; 20.4 µM in test [3]; 21.4 µM in test [4]; 26.6 µM in [5]; 12.8 µM in test [6]. The TGI worked out at 13 µM in [7], 14.6 µM in test [8] and 24.3 µM in test [9].

In the case of `C[n+]1ccc(-c2c3nc(c(-c4ccc5c(ccc[n+]5C)c4)c4ccc([nH]4)c(-c4cc[n+](C)cc4)c4nc(c(-c5ccc6c(ccc[n+]6C)c5)c5ccc2[nH]5)C=C4)C=C3)cc1`, the GI50 in test [1] is 31.4 µM; in [2], > 50 µM; in test [3], > 50 µM; in test [4] it was 49.5 µM; in test [5] it was > 50 µM; in test [6], 12.9 µM. Moreover, the figures for the GI50 in [7], in test [8] and in test [9] were > 50 µM, 40.5 µM and > 50 µM, respectively. For the same compound, the TGI in [1] is > 50 µM; in test [2], > 50 µM; in test [3] it was > 50 µM; in test [4], > 50 µM; in test [5] it was > 50 µM; in test [6] it was 36.9 µM. Besides, the TGI in test [7], in test [8] and in test [9] was > 50 µM throughout.
